Laboratory results from patent US20010049117A1, “ANALOGS OF UDP-MURNAC PEPTIDES, ASSAYS, KITS AND RELATED METHODS OF THEIR USE” (priority 1998, published 2001).

Test system: MraY/MurG enzymes
Test: Lipid II formation assay (coupled MraY/MurG GlcNAc transferase assay, streptavidin capture)
Type: biochemical, E. coli
Procedure: Bacterial membranes are used as a source of enzymes in the coupled MraY/MurG assay for the formation of Lipid II. Wild-type E. coli and MurG over-expressing constructs have been utilized as the membrane donors. Bacteria are grown in Brain Heart Infusion media supplemented with Casamino Acids (BHI/CAA) at 37° C. with aeration, to log phase (OD600=0.7) and centrifuged at 7000×g. Pellets are washed once with 50× the wet pellet weight of 5 mM Tris-HCl (pH 8.0). Pellets are resuspended at a concentration of 2 gms wet pellet/35 mls 5 mM Tris for French Press disruption. Cells are pressure treated at 20,000 psi for 1 minute in a prechilled pressure cell. The membranes generated are collected by ultracentrifugation at 200,000×g for 1 hour at 4° C. Membrane pellets are resuspended in approximately the same volume as the wet pellet weight. This generally yields a membrane concentration of roughly 5 mg/ml. Aliquots are made, and membranes frozen at −80° C. until analysis.
Reactions for the formation of Lipid II have been optimized in 1.5 ml Eppendorf tubes. […]
To the Eppendorf tubes containing the reaction mixtures, 500 ul of binding buffer (10 mM Tris-HCl (PH 8.0), 150 mM NaCl, 0.2% Triton X-100) is added. […] The resulting beads are resuspended in buffer, mixed with scintillation cocktail, and counted in a scintillation counter to determine the amount of radioactivity associated with the capture event. […]

Compound	effect on formation of streptavidin-capturable radiolabeled Lipid II (100 ug/ml)	effect on the coupled GlcNAc transferase assay (formation of Lipid II) (FIG. 4)
moenomycin	did not affect	
CC1(C)S[C@@H]2[C@H](NC(=O)[C@H](N)c3ccccc3)C(=O)N2[C@H]1C(=O)O [ampicillin]		no effect
